Assay results published in US20080269342A1, “Pleuromutilin Derivatives and Its Use” (priority 2005, published 2008).

Assays:
[1] = system: representative Gram-positive and Gram-negative pathogens; experiment: in vivo activity against representative pathogens; conditions: pathogens associated with respiratory tract and skin and skin structure infections, including isolates resistant to existing classes of antimicrobials
[2] = system: representative Gram-positive and Gram-negative pathogens; experiment: in vitro activity against representative pathogens; format: cell-based; conditions: pathogens associated with respiratory tract and skin and skin structure infections, including isolates resistant to existing classes of antimicrobials
[3] = system: isolates carrying resistance determinants to other antibiotics; experiment: in vitro activity against resistant isolates of respiratory pathogens; format: cell-based; conditions: penicillin-, macrolide-, methicillin- or levofloxacin-resistant phenotypes
M. catarrhalis = experiment: in vitro antibacterial activity; format: cell-based; conditions: primary respiratory pathogen
C. pneumoniae = experiment: in vitro activity against atypical pathogens; format: cell-based; conditions: atypical pathogen
H. influenzae = experiment: in vitro antibacterial activity; format: cell-based; conditions: primary respiratory pathogen
S. pyogenes = experiment: in vitro antibacterial activity; format: cell-based
anaerobic organisms = experiment: in vitro activity against anaerobic organisms; format: cell-based
N. meningitidis = experiment: in vitro activity against Neisserria sp.; format: cell-based
F. tularensis = format: cell-based; conditions: biothreat organism
S. pneumoniae = experiment: in vitro antibacterial activity; format: cell-based; conditions: primary respiratory pathogen
L. pneumophila = format: cell-based; conditions: atypical pathogen
N. gonorrhoeae = experiment: in vitro activity against Neisserria sp.; format: cell-based; conditions: both ciprofloxacin susceptible and resistant
M. pneumoniae = experiment: in vitro activity against atypical pathogens; format: cell-based; conditions: atypical pathogen
S. aureus = experiment: in vitro antibacterial activity; format: cell-based
[4] = primary respiratory pathogen, primary pathogen of skin and skin structure infections

With `C=C[C@]1(C)C[C@@H](OC(=O)NC(=O)O[C@H]2C[C@H](N)C2)[C@]2(C)[C@H](C)CC[C@]3(CCC(=O)[C@H]32)[C@@H](C)[C@@H]1O` [Compound I, trans-3-aminocyclobutyl (1S,2R,3S,4S,6R,7R,8R,14R)-4-ethenyl-3-hydroxy-2,4,7,14-tetramethyl-9-oxotricyclo[5.4.3.01,8]tetradec-6-yl imidodicarbonate] the in vivo activity [1] was “good”, the in vitro activity [2] was “good” and the “activity against isolates carrying resistance determinants to other antibiotics” value (shortened to “activity … to other antibiotics”) [3] was “activity”. The “in vitro antibacterial activity” value (M. catarrhalis) was “good in vitro antibacterial activity”, the in vitro activity (C. pneumoniae) was “good in vitro activity” and the “in vitro antibacterial activity” value (H. influenzae) was “good in vitro antibacterial activity”. The “activity … to other antibiotics” value (S. pyogenes; S. pyogenes isolates, penicillin-, macrolide-, methicillin- or levofloxacin-resistant phenotypes) was “retained”, the “in vitro antibacterial activity” value (S. pyogenes; [4]) was “good in vitro antibacterial activity” and the in vitro activity (anaerobic organisms) was “good in vitro activity”. For the same compound, the in vitro activity (N. meningitidis) was “good in vitro activity”, the in vitro activity (F. tularensis) was “good in vitro activity” and the “in vitro antibacterial activity” value (S. pneumoniae) was “good in vitro antibacterial activity”. For the same compound, the in vitro activity (L. pneumophila) was “good in vitro activity”, the in vitro activity (N. gonorrhoeae) was “good in vitro activity” and the in vitro activity (M. pneumoniae) was “good in vitro activity”. For the same compound, the “activity … to other antibiotics” value (S. aureus; S. aureus isolates, penicillin-, macrolide-, methicillin- or levofloxacin-resistant phenotypes) was “retained” and the “in vitro antibacterial activity” value (S. aureus; [4]) was “good in vitro antibacterial activity”.
